# Measured values from ChEMBL document CHEMBL1201862, “PubChem BioAssay data set” (2004).
# Calls of active or inactive are those of the source.
# Experiments:
# Cytochrome P450 2C9 = Cytochrome P450 2C9 (Homo sapiens, UniProt P11712)
# [1] = viability of uninfected HEp-2 cells – cell-based, HTS, cytotoxicity control for RSV inhibitor project, dose response (AID 2410); type: functional; details: human respiratory syncytial virus
# [2] = biological target: T1, Heat shock factor protein 1 (Mus musculus, UniProt P38532); assay: enhancement of HSF1-driven luciferase signal – cell-based, NIH3T3, luminescence, dose retest, confirmation (AID 435004); type: functional;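 also: stress induced by proteasome inhibitor MG132 added 30 min after compound; luciferase reporter driven by HSF1 response element in NIH3T3 cells; actives raise luminescence as potentiators of the MG132 stress response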
# T1 sequence (P38532 whole entry): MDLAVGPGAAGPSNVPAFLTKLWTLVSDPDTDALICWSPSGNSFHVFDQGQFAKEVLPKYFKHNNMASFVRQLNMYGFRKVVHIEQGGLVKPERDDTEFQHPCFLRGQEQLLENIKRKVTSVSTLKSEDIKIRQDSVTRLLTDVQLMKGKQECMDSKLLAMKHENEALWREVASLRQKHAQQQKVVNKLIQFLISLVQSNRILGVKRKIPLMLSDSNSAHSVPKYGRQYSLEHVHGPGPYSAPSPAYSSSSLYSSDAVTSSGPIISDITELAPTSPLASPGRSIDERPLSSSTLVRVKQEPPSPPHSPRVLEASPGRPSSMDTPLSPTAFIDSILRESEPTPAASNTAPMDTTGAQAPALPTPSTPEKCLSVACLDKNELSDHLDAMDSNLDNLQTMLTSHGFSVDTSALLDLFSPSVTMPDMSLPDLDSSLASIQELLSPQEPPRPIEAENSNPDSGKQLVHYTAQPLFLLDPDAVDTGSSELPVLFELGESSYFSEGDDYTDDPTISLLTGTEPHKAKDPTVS
# Cytochrome P450 2C19 = Cytochrome P450 2C19 (Homo sapiens, UniProt P33261); assay: Cytochrome panel assay with activity outcomes. Panel member name: p450-cyp2c19 Compounds with AC50 equal or less than 10 uM are considered active; type: functional
# [3] = tested on: Streptococcus sp. 'group A'; assay: Streptococcus pyogenes SK(-)GAS viability under kanamycin – luminescence, BacTiterGlo, confirmation, counter-screen for streptokinase expression inhibitor project, dose response (AID 1900); type: functional, organism-based
# Streptokinase A = biological target: T2, Streptokinase A (Streptococcus pyogenes serotype M1, UniProt P10520); assay: viability-normalized secreted streptokinase activity reduction – plasminogen activation absorbance, OD405, dose response (AID 1914); type: functional, Streptococcus pyogenes M1 GAS;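 also: secreted streptokinase activity via plasminogen activation per viability signal from cell pellet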
# T2 sequence (P10520 whole entry): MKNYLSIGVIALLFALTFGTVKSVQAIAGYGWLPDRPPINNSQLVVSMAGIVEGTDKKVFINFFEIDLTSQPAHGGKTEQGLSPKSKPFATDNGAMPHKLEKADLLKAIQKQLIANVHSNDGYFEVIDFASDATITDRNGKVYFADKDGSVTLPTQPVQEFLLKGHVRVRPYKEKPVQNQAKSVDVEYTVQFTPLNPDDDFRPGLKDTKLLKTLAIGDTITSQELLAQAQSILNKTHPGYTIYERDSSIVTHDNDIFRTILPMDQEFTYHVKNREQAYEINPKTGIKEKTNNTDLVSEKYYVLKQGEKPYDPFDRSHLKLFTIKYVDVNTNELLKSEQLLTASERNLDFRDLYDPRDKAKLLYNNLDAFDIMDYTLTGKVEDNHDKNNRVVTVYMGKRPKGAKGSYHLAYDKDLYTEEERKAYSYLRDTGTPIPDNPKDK
# Streptococcus = assay: GAS UMAA2166 growth inhibition – luminescence, BacTiterGlo, counter-screen for streptokinase expression inhibitor project, dose response (AID 1915); type: functional, organism-based;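 also: potency for reduction of bacterial viability or growth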
# [4] = Luminescence Cell-Based Dose Retest to Confirm Inhibitors of Cancer Stem Cells. [Related pubchem assays (depositor defined):AID2717, AID2721]; type: functional; details: Homo sapiens
# H4 = assay: Luminescence Cell-Based Dose Response HTS to Identify Activators of 5'UTR Stem-Loop Driven Prion Protein mRNA Translation in H4 Neuroglioblastoma Cells. [Related pubchem assays: 1829 (Project Summary), 1814 (Primary HTS)]; type: functional; details: Homo sapiens
# [5] = NIH-3T3 fibroblast cytotoxicity, dose response, cytotoxicity control, cell-based, fluorescence, Alamar Blue, secondary assay (AID 2327); type: functional;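 also: NIH-3T3 mouse fibroblasts cultured with fluconazole at 8 µg/mL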
# [6] = fluconazole-exposed Candida albicans growth modulators – fluorescence, retest, confirmation (AID 2467); type: functional, cell-based
# [7] = Luminescence Cell-Based Dose Response HTS to Identify Inhibitors of 5'UTR Stem-Loop Driven Prion Protein mRNA Translation in H4 Neuroglioblastoma Cells. [Related pubchem assays: 1827 (Project Summary), 1813 (Primary HTS)]; type: functional
# [8] = alpha-synuclein stem-loop luciferase translation blockers – H4 neuroglioma cells, luminescence, confirmation (AID 1988); type: functional, cell-based
# [9] = Luminescence Cell-Based Dose Response HTS to Identify Activators of Luciferase Translation or Activity in H4 […] Cells. [Related pubchem assays: 1829 (Project Summary), 1814 (Primary HTS)]; type: functional
# Chain of Cytochrome P450 2C9 (P11712 whole entry): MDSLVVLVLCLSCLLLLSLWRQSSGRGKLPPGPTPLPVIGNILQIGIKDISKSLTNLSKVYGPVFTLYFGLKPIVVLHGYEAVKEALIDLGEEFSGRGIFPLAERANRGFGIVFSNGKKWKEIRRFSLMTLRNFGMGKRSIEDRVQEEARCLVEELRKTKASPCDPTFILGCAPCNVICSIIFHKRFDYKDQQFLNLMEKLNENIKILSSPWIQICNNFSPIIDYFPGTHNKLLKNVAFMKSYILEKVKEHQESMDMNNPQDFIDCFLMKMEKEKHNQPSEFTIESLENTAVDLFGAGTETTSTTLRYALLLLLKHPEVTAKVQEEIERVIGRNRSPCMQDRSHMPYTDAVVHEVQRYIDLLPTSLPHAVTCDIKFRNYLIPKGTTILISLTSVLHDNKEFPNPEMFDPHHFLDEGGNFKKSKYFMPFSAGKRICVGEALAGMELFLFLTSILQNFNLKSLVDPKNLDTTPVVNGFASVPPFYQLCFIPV
# Chain of Cytochrome P450 2C19 (P33261 whole entry): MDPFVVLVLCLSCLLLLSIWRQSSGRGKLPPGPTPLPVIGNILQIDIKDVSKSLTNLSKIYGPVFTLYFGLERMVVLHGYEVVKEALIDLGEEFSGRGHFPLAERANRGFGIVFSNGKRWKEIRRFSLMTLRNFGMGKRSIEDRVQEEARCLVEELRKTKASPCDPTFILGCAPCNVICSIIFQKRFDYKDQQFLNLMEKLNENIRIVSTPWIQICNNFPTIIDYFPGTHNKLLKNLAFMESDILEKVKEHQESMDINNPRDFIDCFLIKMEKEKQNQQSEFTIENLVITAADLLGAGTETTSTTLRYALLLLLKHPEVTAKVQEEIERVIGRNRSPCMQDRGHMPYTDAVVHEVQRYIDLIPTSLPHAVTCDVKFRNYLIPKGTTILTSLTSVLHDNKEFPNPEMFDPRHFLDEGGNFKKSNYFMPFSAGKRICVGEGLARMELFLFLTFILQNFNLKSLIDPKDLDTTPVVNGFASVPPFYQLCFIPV
structure (smiles),measurement,setting,value
CC(=O)OCc1c(C(F)(F)F)nn(C)c1Sc1ccccc1,AC50,Cytochrome P450 2C9,28.2 µM (inconclusive)
CCc1nn(C(C)C(=O)NC(C)CCc2ccco2)c(=O)c2cc3occc3n12 (stereo not drawn),CC50,[1],> 50 µM (active)
same,EC50,[2],> 260 µM (inactive)
CN(C)C(=O)c1ccc(-c2ccc3ncnc(N(C)C)c3c2)cc1,AC50,Cytochrome P450 2C9,1.26 µM (inconclusive)
Cn1c(-c2ccc(F)cc2)cnc1NCc1cccc(F)c1,AC50,Cytochrome P450 2C9,39.8 µM (inconclusive)
Cc1ccc(-n2c3c(c(=O)[nH]c2=O)C(C(F)(F)F)(C(F)(F)F)NC(=O)N3)cc1,AC50,Cytochrome P450 2C19; read-out: AC50,39.8 µM (inconclusive)
same,AC50,Cytochrome P450 2C9,20 µM (inconclusive)
c1ccc(Nc2nc(N3CCCCC3)nc(N3CCCCC3)n2)cc1,EC50,[3],11.7 µM (active)
same,EC50,Streptokinase A,> 150 µM (not active)
same,EC50,Streptococcus,33.9 µM (active)
O=C(CNC(=O)c1ccco1)NCc1nc2ccccc2[nH]1,EC50,[3],> 150 µM (not active)
same,EC50,Streptokinase A,> 150 µM (not active)
same,EC50,Streptococcus,> 150 µM (not active)
CC(NC(=O)Cn1c(=O)[nH]c2ccsc2c1=O)C12CC3CC(CC(C3)C1)C2 (stereo not drawn),EC50,[3],> 150 µM (not active)
same,EC50,Streptokinase A,> 150 µM (not active)
same,EC50,Streptococcus,> 150 µM (not active)
O=C(Nc1cccnc1)C1COc2ccccc2O1 (stereo not drawn),AC50,Cytochrome P450 2C9,5.01 µM (inconclusive)
O=C(O)[C@H]1[C@H]2c3ccccc3[C@H](c3ccccc32)[C@@H]1C(=O)NCC1CC1,AC50,Cytochrome P450 2C19; read-out: AC50,3.98 µM (inconclusive)
CC(=O)Nc1nnc(S(=O)(=O)N2CCN(c3ccc(Cl)cc3[N+](=O)[O-])CC2)s1,EC50,[3],29.1 µM (active)
same,EC50,Streptokinase A,> 150 µM (not active)
same,EC50,Streptococcus,> 150 µM (not active)
CC(/C=C/c1ccc(N(C)C)cc1)=N/NC1=NC(=O)CC(C(=O)Nc2ccc(Cl)cc2)S1 (stereo not drawn),EC50,[3],2.94 µM (active)
same,EC50,Streptokinase A,> 150 µM (not active)
same,EC50,Streptococcus,8.65 µM (active)
Cc1cccc2cc(CN(Cc3ccco3)C(c3nnnn3CCc3ccccc3)C(C)C)c(O)nc12 (stereo not drawn),EC50,[2],70.3 µM (active)
O=C(/C=C/c1ccccc1)NC(=S)NNC(=O)Cc1cccs1,EC50,[3],1.39 µM (active)
same,EC50,Streptokinase A,> 150 µM (not active)
same,EC50,Streptococcus,30.3 µM (active)
COc1ccc2[nH]cc(CCNc3ncnc4ccc(-c5ccoc5)cc34)c2c1,AC50,Cytochrome P450 2C9,0.398 µM (inconclusive)
CC(C)SC1=NC(/C=C/c2ccc(Cl)cc2Cl)=CC(C)(C)N1,EC50,[2],38.9 µM (active)
COCCn1nc2cc(C(=O)NCc3cc(C(F)(F)F)cc(C(F)(F)F)c3)ccc2c1OC,AC50,Cytochrome P450 2C19; read-out: AC50,3.16 µM (inconclusive)
CC[C@H](C)/C=C(C)/C=C/C(=O)Cc1cc(O)c(C)c(O)c1C=O,EC50,[2],27.5 µM (active)
Cc1cc(NC(=O)c2cc(C)on2)n(-c2ccccc2)n1,EC50,[2],> 260 µM (inactive)
COc1cccc(C(=O)c2c(C)c(CCC#N)n3ccccc23)c1OC,EC50,[2],> 260 µM (inactive)
CCOc1nc(NCCc2ccc(OC)c(OC)c2)nc(NC(C)(C)CO)n1,AC50,Cytochrome P450 2C9,31.6 µM (inconclusive)
Cc1ccc(S(=O)(=O)NCC(=O)OCC(=O)N2N=C(c3ccc(Cl)cc3)CC2c2ccco2)cc1C (stereo not drawn),EC50,[3],18.6 µM (active)
same,EC50,Streptokinase A,22.4 µM (active)
same,EC50,Streptococcus,61 µM (active)
O=C(Nc1ccc([N+](=O)[O-])cc1)C1C(c2ccccc2)=C1c1ccccc1,EC50,[2],> 260 µM (inactive)
CC(C)(C)OC(=O)COc1cc(OCC(=O)OC(C)(C)C)c2c(=O)cc(-c3ccccc3)oc2c1,CC50,[1],19.6 µM (active)
same,AC50,Cytochrome P450 2C9,2 µM (inconclusive)
O=C(Nc1cccc(F)c1)N1CCC2(CC1)CCN(C(=O)Oc1ccccc1)CC2,AC50,Cytochrome P450 2C9,39.8 µM (inconclusive)
Cn1ncc(Br)c1C(=O)N1CCOCC1,EC50,[2],> 260 µM (inactive)
CCOC(=O)N1CCN(S(=O)(=O)c2cc(Cl)c(OC)cc2Cl)CC1,EC50,[2],> 260 µM (inactive)
c1cn2c(NC3CCCCC3)c(-c3ccc(SC4CCCCC4)cc3)nc2cn1,EC50,[3],1.01 µM (active)
same,EC50,Streptokinase A,> 150 µM (not active)
same,EC50,Streptococcus,4.27 µM (active)
same,AC50,[4],3.13 µM (active)
C[N+]1(C)C[C@@H](O)C[C@@H]1C(=O)[O-] [BETONICINE],AC50,Cytochrome P450 2C19,inconclusive
Cc1c(C(=O)NCCN(C)C)oc2ccc(S(=O)(=O)N3CCCC3)cc12,EC50,[2],> 260 µM (inactive)
CC(C)c1ccc(/C=N/NC(=O)c2cccc(Cl)c2)cc1,EC50,H4,43.1 µM (active)
same,AC50,[4],2.88 µM (active)
O=C(COC(=O)c1cn(-c2ccccc2)nc1-c1ccccc1)c1ccc([N+](=O)[O-])cc1,EC50,[2],> 260 µM (inactive)
CCS(=O)(=O)Nc1ccc2[nH]c(O)nc2c1,EC50,[2],> 260 µM (inactive)
Cc1ccc(NC(=O)COC(=O)/C=C/c2ccc(Br)o2)cc1S(=O)(=O)N(C)C,EC50,[2],> 260 µM (inactive)
CC(=O)[C@@]1(O)CC[C@H]2[C@H]3C[C@@H](C)C4=CC(=O)C=C[C@]4(C)[C@@]3(F)[C@@H](O)C[C@]21C,AC50,Cytochrome P450 2C9,12.6 µM (inconclusive)
O=C(N/N=C/c1cc([N+](=O)[O-])ccc1O)C(O)(c1ccccc1)c1ccccc1,EC50,[5],> 150 µM (inactive)
same,EC50,[3],3.11 µM (active)
same,EC50,Streptokinase A,> 150 µM (not active)
same,EC50,[6],2.29 µM (active)
same,EC50,Streptococcus,9.11 µM (active)
S=c1[nH]cc(Cc2ccccc2)s1,EC50,[2],> 260 µM (inactive)
COc1ccc(/C=C2\SC(=S)N(CCC(=O)NC3C=CS(=O)(=O)C3)C2=O)cc1 (stereo not drawn),EC50,[7],15.7 µM (active)
same,EC50,[8],13.4 µM (active)
O=C(COc1cccc2cccnc12)Nc1ccccc1,EC50,[9],15.4 µM (active)
same,EC50,H4,15 µM (active)
CCOc1ccc(C(C)=O)cc1N1C(=O)C2C(C1=O)C1C=CC2C12CC2 (stereo not drawn),AC50,Cytochrome P450 2C19; read-out: AC50,17.8 µM (inconclusive)
same,AC50,Cytochrome P450 2C9,14.1 µM (inconclusive)
COC(=O)[C@@H]1CC[C@H](C)[C@@H](c2ccc(C)cc2)N1C(=O)c1ccc(/C=N\OCC[C@@H]2C=C[C@H](OC(C)=O)[C@H](COC(C)=O)O2)cc1,AC50,Cytochrome P450 2C9,3.98 µM (inconclusive)
COc1ccc(CNS(=O)(=O)c2cc(CN3C(=O)c4cccnc4C3=O)ccc2OC)cc1,EC50,[2],> 260 µM (inactive)
Cn1c(-c2ccc(Br)cc2)cnc1NCc1cccnc1,AC50,Cytochrome P450 2C19; read-out: AC50,17.8 µM (inconclusive)
same,AC50,Cytochrome P450 2C9,15.8 µM (inconclusive)
CC1CCC(C(=O)c2c(O)oc3ccccc3c2=O)CC1 (stereo not drawn),EC50,[5],> 150 µM (inactive)
same,EC50,[3],10.4 µM (active)
same,EC50,Streptokinase A,> 150 µM (not active)
same,EC50,[6],2.01 µM (active)
same,EC50,Streptococcus,20.3 µM (active)
COc1ccc(CN2CC(C(=O)NCCCN3CCOCC3)CC2=O)cc1 (stereo not drawn),EC50,[2],> 260 µM (inactive)
